# Source: paper PMC3681751, “Identification of a Novel Antimicrobial Peptide from Human Hepatitis B Virus Core Protein Arginine-Rich Domain (ARD)” (PLoS Pathogens, 2013)
# Like-named read-outs stand apart in the source and are kept apart here. Residues, ends and D or L forms follow the SMILES beside them.
# Tests used:
# [1] = test system: P. aeruginosa (ATCC 27853); assay type: cell-based, Pseudomonas aeruginosa
# Summary of the method: (§1)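 Bacteria were grown overnight at 37°C in Mueller–Hinton broth and diluted at mid-log phase to 10^6 CFU/ml in pH 7.2 sodium phosphate/NaCl buffer. Peptide dilutions in that buffer were added, then 3 h static incubation at 37°C. Plating on agar overnight gave the minimal bactericidal concentration.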
# [2] = test system: P. aeruginosa (ATCC 9027); assay type: cell-based, Pseudomonas aeruginosa
# Summary of the method: as §1
# P. aeruginosa NHRI-01 = assay type: cell-based, Pseudomonas aeruginosa; conditions: colistin-resistant P. aeruginosa of Table 2
# Source text: (§2) Clinical isolates of Pseudomonas aeruginosa (NHRI-01, NHRI-02 and NHRI-04) were obtained through the program of Taiwan Surveillance of Antimicrobial Resistance (TSAR), National Health Research Institutes (NHRI), Taiwan. Acinetobacter baumannii (ATCC 17989, ATCC 17978 CR, ATCC19606, ATCC 19606 CR, TCGH 45530 and TCGH 46709) were obtained from Tzu-Chi Buddhist General Hospital (TCGH) in Taiwan, and clinical isolates (TCGH 45530 and TCGH 46709) were identified using the Vitek system (Biomerieux Vitek, Inc., Hazelwood, MO, USA). A. baumannii is defined as multidrug-resistant, when the organism is resistant to piperacillin, piperacillin-tazobactam, ampicillin/sulbactam, imipenem, ceftazidime, gentamicin, amikacin, tetracycline, chloramphenicol, ciprofloxacin, and cotrimoxazole. Susceptibility to colistin was determined using the broth-dilution method, in accordance with the guidelines of the Clinical and Laboratory Standards Institute (CLSI).
# (§3) All peptides were purchased from Yao-Hong Biotechnology Inc. (Taipei, Taiwan). Vendors provided data of peptide characterizations, including HPLC and Mass (data not shown). Antimicrobial activity was determined as described with some modifications as detailed below. Bacteria were grown overnight in Mueller–Hinton broth (Difco) at 37°C, and during the mid-logarithmic phase, bacteria were diluted to 10^6 CFU (colony formation unit)/ml in phosphate buffer (10 mM sodium phosphate and 50 mM sodium chloride, pH 7.2). Peptides were serially diluted in the same buffer. Fifty microliter (µl) of bacteria was mixed with fifty µl of peptides at varying concentrations followed by incubation at 37°C for 3 hours without shaking. At the end of incubation, bacteria were placed on Mueller-Hinton broth agar plates, and allowed growth at 37°C overnight for measurement of minimal bactericidal concentration (MBC). […] All peptides were tested in triplicate.
# P. aeruginosa NHRI-02 = assay type: cell-based, Pseudomonas aeruginosa; conditions: NHRI-02, 3 h
# Source text: as §2, §3
# P. aeruginosa NHRI-04 = assay type: cell-based, Pseudomonas aeruginosa; conditions: NHRI-04, 3 h
# Source text: as §2, §3
# K. pneumonia = test: Killing kinetics; assay type: cell-based, Klebsiella pneumoniae; conditions: 4 µM peptide, 37°C, triplicates
# Method: (§4) For measurement of killing kinetics, bacteria and peptides were prepared as described above. Fifty µl of bacteria were mixed with fifty µl of peptides at the concentrations corresponding to MBC and were incubated at 37°C. At the indicated time, bacteria were serially diluted and placed on Mueller-Hinton broth agar plates for the viability measurement.
# E. coli [3] = test: Killing kinetics; assay type: cell-based, Escherichia coli; conditions: 4 µM peptide (1×MBC), 37°C, triplicates
# Method: as §4
# E. coli [4] = test: SYTOX Green uptake (membrane permeabilization); assay type: cell-based, Escherichia coli; conditions: 4 µM peptide; 10^7 CFU, 1 µM SYTOX Green, 37°C
# Method: Briefly, bacteria (10^7 CFU) were prepared and mixed with 1 µM SYTOX Green (Invitrogen) for 15 minutes in the dark. […] Melittin (Sigma), the major toxin of bee venom, was used as a positive control to provide maximal permeabilization.
# [5] = LPS/Lipid A competition ELISA; assay type: binding; conditions: 10 nM peptide, 1 µg LPS per well, E. coli Lipid A 0 to 10 µg/ml, 1 hour 37°C
# Method: Several kinds of peptide-LPS or peptide-Lipid A binding assays were performed in this study: 1) Streptavidine-conjugated beads (Dynabeads MyOne Streptavidin T1, Invitrogen) were blocked by P. aeruginosa LPS (Sigma) at 37°C for 1.5 hour. After washing with PBST (PBS, pH 7.4 containing 0.1% (w/v) Tween-20), aliquots containing 250 pmol streptavidine-conjugated beads were incubated with a reaction mixture overnight at 4°C. The reaction mixture was prepared by mixing increasing amounts of biotinylated peptide HBc147-183 (0, 0.004, 0.02, 0.1, 0.5 and 2.5 µM) and 5 µg/ml P. aeruginosa LPS (Sigma) or 200 µg/ml E. coli lipid A (Sigma), at 37°C for 3 hour. After incubation overnight at 4°C, the reduction of LPS (or Lipid A) in the supernatants were measured by the Limulus Amebocyte Lysate (LAL) test (Charles River Endosafe) with an ELISA reader (Molecular Devices). The amount (EU/ml) of LPS was calculated according to the standard curve prepared with Endosafe Control Srandard Endotoxin. […] After trypsinization, the trypsin-released LPS in the supernatants were collected and measured by the Limulus Amebocyte Lysate (LAL) test. […] Plate-bound HBc147-183 was measured by streptavidin conjugated with HRP (1∶10000 dilution) for 1 hour at 37°C. […] The absorption was measured at 450 nm with a reference wavelength at 655 nm.
# Huh 7 cells = test: Peptide uptake into mammalian cells; assay type: cell-based, human; conditions: data not shown
# [6] = ampicillin-resistant strain, 3 h at 37°C in phosphate buffer pH 7.2, triplicate
smiles,measurement,setting,value
CC(C)[C@H](NC(=O)[C@@H](NC(=O)[C@@H](N)[C@@H](C)O)C(C)C)C(=O)N[C@@H](CCCNC(=N)N)C(=O)N[C@@H](CCCNC(=N)N)C(=O)N[C@@H](CCCNC(=N)N)C(=O)NCC(=O)N[C@@H](CCCNC(=N)N)C(=O)N[C@@H](CO)C(=O)N1CCC[C@H]1C(=O)N[C@@H](CCCNC(=N)N)C(=O)N[C@@H](CCCNC(=N)N)C(=O)N[C@@H](CCCNC(=N)N)C(=O)N[C@H](C(=O)N1CCC[C@H]1C(=O)N[C@@H](CO)C(=O)N1CCC[C@H]1C(=O)N[C@@H](CCCNC(=N)N)C(=O)N[C@@H](CCCNC(=N)N)C(=O)N[C@@H](CCCNC(=N)N)C(=O)N[C@@H](CCCNC(=N)N)C(=O)N[C@@H](CO)C(=O)N[C@@H](CCC(N)=O)C(=O)N[C@@H](CO)C(=O)N1CCC[C@H]1C(=O)N[C@@H](CCCNC(=N)N)C(=O)N[C@@H](CCCNC(=N)N)C(=O)N[C@@H](CCCNC(=N)N)C(=O)N[C@@H](CCCNC(=N)N)C(=O)N[C@@H](CO)C(=O)N[C@@H](CCC(N)=O)C(=O)N[C@@H](CO)C(=O)N[C@@H](CCCNC(=N)N)C(=O)N[C@@H](CCC(=O)O)C(=O)N[C@@H](CO)C(=O)N[C@@H](CCC(N)=O)C(=O)N[C@@H](CS)C(=O)O)[C@@H](C)O [HBc147-183] (H-TVVRRRGRSPRRRTPSPRRRRSQSPRRRRSQSRESQC-OH; N-terminus and C-terminus assumed),"Antimicrobial activity, MBC","[1]; ATCC 27853, 3 h, pH 7.2",2 to 4 µM
same,"Antimicrobial activity, MBC",[1]; [6],9.18 to 18.36 µg/mL
same,MBC against P. aeruginosa,"[2]; ATCC 9027, 3 h",lower than 4 µM
same,"Antimicrobial activity, MBC","[2]; ATCC 9027, 3 h, pH 7.2",2 µM
same,"Antimicrobial activity, MBC",[2]; [6],9.18 µg/mL
same,MBC against colistin-resistant P. aeruginosa,P. aeruginosa NHRI-01,> 16 µM
same,MBC against colistin-sensitive P. aeruginosa,P. aeruginosa NHRI-02,4 µM
same,MBC,P. aeruginosa NHRI-04,18.36 µg/mL
same,Time to complete killing,K. pneumonia,180 min
same,Time to complete killing,E. coli [3],180 min
same,Membrane permeabilization (SYTOX Green uptake),E. coli [4],not able to induce membrane permeabilization
same,Binding of peptide to plate-coated LPS with increasing Lipid A,[5],significantly decreased
same,Penetration through the cell membrane,Huh 7 cells,can penetrate through the cell membrane
